Source: patent publication US12049439B2 (OrsoBio, Inc., priority 2018, dated 2024)

tested on: PC-3 cells; assay: PC-3 Oxygen Rate Consumption (OCR) Assay; assay type: cell-based; conditions: Homo sapiens, 0.05 h, medium with 2% FBS, OCR at 3-min post-injection normalized to % increase over DMSO-treated cells, concentration for half-maximal OCR increase, read-out: EC50-PC3-OCR-FBS-3min
Procedure: PC-3 Oxygen Rate Consumption (OCR) Assay Procedure:
One day before the assay, PC-3 cells were seeded at 2.5×10^4 cells/160 μL/well in a 96-well XFe96 cell plate, part of a FlexPak containing a cell plate and a cartridge (Agilent, Sunnyvale, CA). The cells were incubated overnight at 37° C. in a 5% CO2 and 90% humidity incubator with F12K culture medium (ThermoFisher Scientific/Invitrogen, Grand Island, NY) containing 10% FBS and 1% penicillin/streptomycin. On the day of the assay, the cells were washed twice with 300 µL/well Medium A [XF assay medium (Agilent) supplemented 10 mM glucose, 1 mM pyruvate, and 2% fetal bovine serum (FBS)], and incubated with 175 µL/well Media A for 1 hr in a 37° C., non-CO2 incubator prior to the measurement of cellular respiration. Compounds of interests were prepared in 1:2 serial dilutions with 100% DMSO and then further diluted into 8× working stock with Media A prior to being loaded to Injection Port A on a XFe96 Analyzer (Agilent). Six replicates were used for each treatment. The cartridge was calibrated in the XFe96 Analyzer 30 minute prior to the measurement of cellular respiration. Basal levels of OCR were measured three times, each using a “3-minute mixing/3-minute measurement” program. The compound effect was measured immediately after compound injection from Injection Port A, and OCR was monitored continuously 10 times, each time using a “1-minute mixing/2-minute measurement” program for a total of 30 minutes post compound injection. The level of OCR at 3-min post-injection was normalized to % increase over DMSO-treated cells. The concentration of compound required to reach the half-maximal OCR increase was defined as EC50 Table 2 contains PC3 OCR EC50 values for the compounds disclosed.

Row | SMILES | EC50 [µM]
1 | CC(C)(C)S(=O)(=O)Nc1ccc(C(F)(F)F)cc1C(=O)NC12CC3CC(CC(C#N)(C3)C1)C2 [Example 176, N-((1R,5R)-3-cyanoadamantan-1-yl)-2-((1,1-dimethylethyl)sulfonamido)-5-(trifluoromethyl)benzamide] | 1.7
2 | CS(=O)(=O)c1ccc(S(=O)(=O)Nc2ccc(Cl)cc2C(=O)NC23CC(c4ccccc4)(C2)C3)cc1 [Example 91, 5-chloro-2-((4-(methylsulfonyl)phenyl)sulfonamido)-N-(3-phenylbicyclo[1.1.1]pentan-1-yl)benzamide] | 2.97
3 | CS(=O)(=O)c1ccc(S(=O)(=O)Nc2cc(C(F)(F)F)ccc2C(=O)NC23CCC(F)(CC2)CC3)cc1 [Example 9, N-(4-fluorobicyclo[2.2.2]octan-1-yl)-2-((4-(methylsulfonyl)phenyl)sulfonamido)-4-(trifluoromethyl)benzamide] | 5.56
4 | CS(=O)(=O)CCOc1ccc(S(=O)(=O)Nc2cc(C(F)(F)F)ccc2C(=O)NC23CC(C(F)(F)F)(C2)C3)cc1 [Example 115, 2-((4-(2-(methylsulfonyl)ethoxy)phenyl)sulfonamido)-4-(trifluoromethyl)-N-(3-(trifluoromethyl)bicyclo[1.1.1]pentan-1-yl)benzamide] | 12.6
5 | CS(=O)(=O)Nc1ccc(C(F)(F)F)cc1C(=O)NC12CC(C1)C2 [Example 212, N-(bicyclo[1.1.1]pentan-1-yl)-2-(methylsulfonamido)-5-(trifluoromethyl)benzamide] | 8.62
6 | N#CC12CCC(NC(=O)c3cc(C(F)(F)F)ccc3NS(=O)(=O)c3ccc(F)cc3)(CC1)CC2 [Example 119, N-(4-cyanobicyclo[2.2.2]octan-1-yl)-2-((4-fluorophenyl)sulfonamido)-5-(trifluoromethyl)benzamide] | 1.26
7 | O=C(NC12CC(C(F)(F)F)(C1)C2)c1ccc(C(F)(F)F)cc1NS(=O)(=O)c1ccc(N2CCCS2(=O)=O)cc1 [Example 29, 2-((4-(1,1-dioxidoisothiazolidin-2-yl)phenyl)sulfonamido)-4-(trifluoromethyl)-N-(3-(trifluoromethyl)bicyclo[1.1.1]pentan-1-yl)benzamide] | 8.8
8 | O=C(NC12CC(C(F)(F)F)(C1)C2)c1ccc(C(F)(F)F)cc1NS(=O)(=O)c1ccc(S(=O)(=O)C(F)F)cc1 [Example 34, 2-((4-((difluoromethyl)sulfonyl)phenyl)sulfonamido)-4-(trifluoromethyl)-N-(3-(trifluoromethyl)bicyclo[1.1.1]pentan-1-yl)benzamide] | 2.71
9 | N#CC1CC2(C1)CN(S(=O)(=O)Nc1cc(F)c(F)cc1C(=O)NC13CC(C(F)(F)F)(C1)C3)C2 [Example 232, 2-((6-cyano-2-azaspiro[3.3]heptane)-2-sulfonamido)-4,5-difluoro-N-(3-(trifluoromethyl)bicyclo[1.1.1]pentan-1-yl)benzamide] | 5.58
10 | CS(=O)(=O)Nc1ccccc1C(=O)NC12CC(C(F)(F)F)(C1)C2 [Example 138, 2-(methylsulfonamido)-N-(3-(trifluoromethyl)bicyclo[1.1.1]pentan-1-yl)benzamide] | ≥ 100
11 | CS(=O)(=O)Nc1cc(F)ccc1C(=O)NC12CC(C1)C2 [Example 137, N-(bicyclo[1.1.1]pentan-1-yl)-4-fluoro-2-(methylsulfonamido)benzamide] | ≥ 100
12 | O=C(NC12CC(C(F)(F)F)(C1)C2)c1ccccc1NS(=O)(=O)c1ccc(Cl)cc1Cl [Example 141, 2-((2,4-dichlorophenyl)sulfonamido)-N-(3-(trifluoromethyl)bicyclo[1.1.1]pentan-1-yl)benzamide] | 1.18
13 | CC(C)(C)[S+]([O-])Nc1ccc(C(F)(F)F)cc1C(=O)NC12CC(C(F)(F)F)(C1)C2 (stereo not drawn) [Example 192, 2-((tert-butylsulfinyl)amino)-5-(trifluoromethyl)-N-(3-(trifluoromethyl)bicyclo[1.1.1]pentan-1-yl)benzamide] | 14.7
14 | N#CCCS(=O)(=O)Nc1ccc(Cl)cc1C(=O)NC12CC(C(F)(F)F)(C1)C2 [Example 228, 5-chloro-2-((2-cyanoethyl)sulfonamido)-N-(3-(trifluoromethyl)bicyclo[1.1.1]pentan-1-yl)benzamide] | 3.37
15 | N#Cc1ccc(NS(=O)(=O)C2CC2)c(C(=O)NC23CCC(C#N)(CC2)CC3)c1 [Example 124, 5-cyano-N-(4-cyanobicyclo[2.2.2]octan-1-yl)-2-(cyclopropanesulfonamido)benzamide] | 79.4
16 | N#CC12CCC(NC(=O)c3cc(Cl)ccc3NS(=O)(=O)C3(C#N)CC3)(CC1)CC2 [Example 211, 5-chloro-N-(4-cyanobicyclo[2.2.2]octan-1-yl)-2-((1-cyanocyclopropane)-1-sulfonamido)benzamide] | 15.4
17 | N#CC1CCN(S(=O)(=O)Nc2ccc(C(F)(F)F)cc2C(=O)NC23CCC(C#N)(CC2)CC3)CC1 [Example 233, N-(4-cyanobicyclo[2.2.2]octan-1-yl)-2-((4-cyanopiperidine)-1-sulfonamido)-5-(trifluoromethyl)benzamide] | 4.79
18 | O=C(NC12CCC(C(F)(F)F)(CC1)CC2)c1cc(C(F)(F)F)ccc1NS(=O)(=O)C1CCS(=O)(=O)CC1 [Example 239, 2-((1,1-dioxidotetrahydro-2H-thiopyran)-4-sulfonamido)-5-(trifluoromethyl)-N-(4-(trifluoromethyl)bicyclo[2.2.2]octan-1-yl)benzamide] | 7.73
19 | CC(C)(C)S(=O)(=O)Nc1ccc(C(F)(F)F)cc1C(=O)NC12CCC(C#N)(CC1)C2 [Example 172, N-(4-cyanobicyclo[2.2.1]heptan-1-yl)-2-((1,1-dimethylethyl)sulfonamido)-5-(trifluoromethyl)benzamide] | 1.66
20 | CC(C)(C)S(=O)(=O)Nc1cc(C(F)(F)F)ccc1C(=O)NC12CC(C(F)(F)F)(C1)C2 [Example 110, 2-((1,1-dimethylethyl)sulfonamido)-4-(trifluoromethyl)-N-(3-(trifluoromethyl)bicyclo[1.1.1]pentan-1-yl)benzamide] | 0.445
21 | CC(C)(C)c1ccc(S(=O)(=O)Nc2cc(F)ccc2C(=O)NC23CC(C(F)(F)F)(C2)C3)cc1 [Example 3, 2-((4-(tert-butyl)phenyl)sulfonamido)-4-fluoro-N-(3-(trifluoromethyl)bicyclo[1.1.1]pentan-1-yl)benzamide] | 0.785
22 | CC(C)(C)c1ccc(C(=O)NC23CC(C(F)(F)F)(C2)C3)c(NS(=O)(=O)c2ccc(S(C)(=O)=O)cc2)c1 [Example 13, 4-(tert-butyl)-2-((4-(methylsulfonyl)phenyl)sulfonamido)-N-(3-(trifluoromethyl)bicyclo[1.1.1]pentan-1-yl)benzamide] | 5.72
23 | CC(C)(C)S(=O)(=O)Nc1ccc(Cl)cc1C(=O)NC12CC(c3ccccc3)(C1)C2 [Example 83, 5-chloro-2-((1,1-dimethylethyl)sulfonamido)-N-(3-phenylbicyclo[1.1.1]pentan-1-yl)benzamide] | 5.43
24 | CC(C)(C)c1ccc(C(=O)NC23CC(C#N)(C2)C3)c(NS(=O)(=O)c2ccc(S(C)(=O)=O)cc2)c1 [Example 14, 4-(tert-butyl)-N-(3-cyanobicyclo[1.1.1]pentan-1-yl)-2-((4-(methylsulfonyl)phenyl)sulfonamido)benzamide] | ≥ 20
25 | O=C(NC12CC(c3ccccc3)(C1)C2)c1ccc(C(F)(F)F)cc1NS(=O)(=O)c1ccc(-n2cnnn2)cc1 [Example 43, 2-((4-(1H-tetrazol-1-yl)phenyl)sulfonamido)-N-(3-phenylbicyclo[1.1.1]pentan-1-yl)-4-(trifluoromethyl)benzamide] | 2.99
26 | CS(=O)(=O)Nc1cc(F)c(F)cc1C(=O)NC12CCC(C#N)(CC1)CC2 [Example 215, N-(4-cyanobicyclo[2.2.2]octan-1-yl)-4,5-difluoro-2-(methylsulfonamido)benzamide] | 21.4
27 | CS(=O)(=O)c1ccc(NS(=O)(=O)c2ccc(S(F)(F)(F)(F)F)cc2)c(C(=O)NC23CC(C(F)(F)F)(C2)C3)c1 [Example 150, 5-(methylsulfonyl)-2-((4-(pentafluoro-λ^6-sulfanyl)phenyl)sulfonamido)-N-(3-(trifluoromethyl)bicyclo[1.1.1]pentan-1-yl)benzamide] | ≥ 20
28 | CS(=O)(=O)Nc1ccc(C(F)(F)F)cc1C(=O)NC12C3C4C1C1C2C3C41C#N [Example 187, N-((2r,3R,4r,5S)-4-cyanocuban-1-yl)-2-(methylsulfonamido)-5-(trifluoromethyl)benzamide] | 11.5
29 | CS(=O)(=O)Nc1c(F)cccc1C(=O)NC12CC(C(F)(F)F)(C1)C2 [Example 136, 3-fluoro-2-(methylsulfonamido)-N-(3-(trifluoromethyl)bicyclo[1.1.1]pentan-1-yl)benzamide] | ≥ 100
30 | CCCS(=O)(=O)Nc1ccc(C#N)cc1C(=O)NC12CCC(C#N)(CC1)CC2 [Example 104, 5-cyano-N-(4-cyanobicyclo[2.2.2]octan-1-yl)-2-(propylsulfonamido)benzamide] | 37.5
